Laboratory results: patent US20150158914A1, “PEPTIDES, CONSTRUCTS AND USES THEREFOR” (priority 2010, published 2015)
Entries after “also recorded” stand apart in the source; their conditions may differ. Where two headings read alike, the source gives them in different places. Ends that are not written are not given here. * marks the point of attachment. FITC = O=C1OC2(c3ccc(O)cc3Oc3cc(O)ccc32)c2ccc(NC(=S)*)cc21; Biotin = O=C1N[C@H]2[C@H](CS[C@H]2CCCCC(=O)*)N1; Acp = not defined here

Assays:
[1] = target: mutated B-Raf (Homo sapiens, UniProt P15056, V600E); settings: in vivo; cited from earlier work
mutated B-Raf, sequence (P15056 whole entry V600E): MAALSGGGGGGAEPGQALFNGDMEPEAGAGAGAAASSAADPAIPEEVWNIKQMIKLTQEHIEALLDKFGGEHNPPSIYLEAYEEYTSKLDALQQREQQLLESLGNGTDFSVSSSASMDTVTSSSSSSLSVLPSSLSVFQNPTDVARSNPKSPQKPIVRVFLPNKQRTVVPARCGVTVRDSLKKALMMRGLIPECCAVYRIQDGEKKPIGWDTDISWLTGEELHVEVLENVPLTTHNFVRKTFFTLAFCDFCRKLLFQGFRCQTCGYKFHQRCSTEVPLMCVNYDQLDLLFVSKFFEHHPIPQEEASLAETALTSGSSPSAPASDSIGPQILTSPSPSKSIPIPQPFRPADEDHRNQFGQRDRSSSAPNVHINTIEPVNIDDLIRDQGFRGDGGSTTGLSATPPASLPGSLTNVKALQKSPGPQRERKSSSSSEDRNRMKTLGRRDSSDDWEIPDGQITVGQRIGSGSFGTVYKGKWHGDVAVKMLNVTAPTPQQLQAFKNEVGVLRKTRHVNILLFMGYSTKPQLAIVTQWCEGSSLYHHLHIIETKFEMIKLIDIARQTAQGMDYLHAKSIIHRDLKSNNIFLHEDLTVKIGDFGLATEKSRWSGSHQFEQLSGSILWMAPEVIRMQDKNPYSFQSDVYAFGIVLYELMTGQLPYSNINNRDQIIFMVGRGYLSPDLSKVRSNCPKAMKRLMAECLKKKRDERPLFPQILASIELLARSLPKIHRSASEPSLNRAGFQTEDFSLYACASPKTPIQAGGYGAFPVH

[2] = tested on: WM-266-4 melanoma cells; assay: Apoptosis by anti-B-raf antibody delivered with the carrier peptide (Annexin-V fluos); type: cell-based; settings: 1 μg/ml, 3 h
Experimental: The carrier peptide-rabbit anti-B-raf antibody conjugate (1 μg/ml), the unconjugated carrier peptide and unconjugated anti-B-raf antibody (1 μg/ml) were added to WM-266-4 melanoma cells, and cell apoptosis was assessed after 3 h by addition of Annexin-V fluos, with visualization by fluorescence microscopy. Untreated cells were included as an additional control. Cell nuclei were stained with DAPI. The results were merged to illustrate the numbers of cells that underwent apoptosis compared with the total number of cells ie the proportion of cells that underwent apoptosis.

[3] = tested on: X-protein; assay: Western blot of X-protein in transfected HepG2 cells treated with X-protein-degradation domain fusion peptides; type: cell-based, hepatitis B virus; settings: HepG2 transfected with pCDNA3.1-HBX or pCDNA3-HBX Myc; 10 μM peptide at 3 h, 24 h and 48 h post transfection
Experimental: HepG2 cells were seeded into 6 well plates at 1×10^6 cells per well in MEM medium supplemented with 10% FCS, and cultured overnight at 37° and 5% CO2. No PSG antibiotic was added to the medium as it can interfere with transfection efficiency. The medium was then removed and replaced with MEM medium without 10% FCS. The amount of DNA used for transfection was 4 μg. Firstly, 4 μg of DNA was mixed with 250 μl of Opti-MEM medium, and then 4 μl of polymag transfection reagent was added. The mixture was incubated for 20 min and then added to the cells. The plate was placed onto a magnetic plate on a rotating platform for 20 min.
Cell-permeable X-protein-degradation domain fusion peptides were added at a concentration of 10 μM to the cells in MEM without 10% FCS and cells incubated for 45 h. […] An additional 10 μM of peptide was added after 3 h of incubation, and a further 10 μM of peptide was added after 21 h incubation. When the additional aliquots of peptide were added, the cells were washed in MEM without FCS, the peptides added, and the cells incubated for 3 h before changing the medium to MEM containing 10% FCS and PSG. The cells were lysed and analyzed by Western blot analysis for expression of the X-proteins.
Cells were washed with PBS, and detached from plates by incubation with trypsin diluted in PBS. Cells were washed with MEM containing FCS to inactivate trypsin, and pelleted by centrifugation at 175 g for 5 min. They were then resuspended in 1 ml of PBS, and a 10 μl sample was removed, stained with Trypan blue, and cell number counted with a haemocytometer. The cells were then pelleted at 4,000 g for 5 min and thrice washed in PBS. All traces of liquid were removed and the cells were ready for cell lysis. Complete Lysis Buffer was added to the cells at 20 μl per 1×10^6 cells. The cells were resuspended very well to aid lysis and then left on ice for 10 min. They were centrifuged at 15,000 g for 10 min, and the supernatant collected and saved. The nuclear precipitate was processed by adding 13 μl of lysis buffer, 2 μl of 2% SDS, 2 μl of Na deoxycholate, 2 μl of DNAse buffer and 1 μl of DNAse I. The sticky cell lysate was resuspended vigorously after each reagent was added then incubated at 37° for 10 min.
The two X-protein-ODD fusion peptides were tested for their ability to decrease the level of X-protein expression. HepG2 cells were transfected with 4 μg of either the X-protein plasmids pCDNA3.1-HBX and pCDNA3-HBX Myc, or 4 μg of the pCDNA3-GFP vector. The X-protein-ODD fusion peptides were repetitively added to the cells at 3 h, 24 h and 48 h post transfection. Control transfectants were not treated with peptide, but were otherwise cultured under the same conditions. Transfectants were subjected to Western blotting to determine whether the X-protein was expressed. […]

[4] = tested on: C32 melanoma cells; settings: C32, 10 μM, 3 h
Experimental: (§1) The melanoma cell lines WM-266-4 and C32 were seeded into 8-well chamber slides at 1×10^5 cells per well in full MEM media and incubated at 37° C. and 5% CO2 overnight. The next day the cells were washed thrice with serum-free MEM, resuspended in 500 μl of the same medium, and added to the wells. […] Annexin-V labelling solution was prepared by adding 20 μl of Annexin V labelling reagent and 10 μl of propidium iodide in 1 ml of incubation buffer. The cells were washed with incubation buffer, and 100 μl of Annexin-V labelling solution was added, followed by incubation for 15 min in the dark. The cells were washed with incubation buffer, fixed with 4% formaldehyde in PBS for 30 min, washed with PBS and slide chambers removed. A drop of Prolong Gold anti-fade reagent with DAPI was added to each sample, the slides dried overnight, and then examined by fluorescence microscopy.

[5] = tested on: WM-266-4 melanoma cells; settings: WM-266-4, 20 μM, 3 h
Experimental: as §1

[6] = tested on: HepG2 cells; assay: Assay for cell permeability of X-protein peptides (fluorescence and confocal microscopy); type: cell-based, human; settings: for uptake by HepG2 cells (cell permeability): FITC-labelled peptide 10 μM, 3 h, medium without FCS; for intracellular distribution (confocal slicing): FITC-labelled peptide, HepG2 cells
Experimental: The cells were then incubated overnight at 37° and 5% CO2, and then washed thrice with media without FCS. The X-protein peptide in 250 μl of appropriate media without FCS was added to the cells at a final concentration of 10 μM, and the slides incubated for 3 h at 37° C. and 5% CO2. The cells were washed with PBS, fixed with 4% formaldahyde in PBS for 30 min, and washed thrice with PBS. […] The slides were dried overnight in the dark, and examined by microscopy by using a Nikon E600 fluorescent microscope. Photos were taken using Nikon ACT-1 software. For further examination, slides were then examined by confocal microscopy using a Leica TCS-SP2 confocal microscope.

[7] = target: T1, X-protein N-terminal peptide 1-50 (Hepatitis B virus genotype C subtype adr, UniProt Q81163, DEL44-44/P38S/S41A/S42F/V5L); assay: Peptide binding assay: FITC-peptides on peptide 1-50-coated plates; settings: FITC-peptide at 10, 20, 40 μg/ml, 30 min
T1 construct: The parent peptide containing aa 1-50 conjugated N-terminally to a biotin tag; purchased; host or cells: chemical synthesis
Experimental: Qligomerization peptides were received in powdered form, and were weighed and diluted in a sterile 10% DMSO solution to make a 10 mg/ml stock solution. The wells of a Reactibind neutravidin-coated 96 well plate (Thermoscientific cat #15507) were thrice washed with 200 μl of plate washing buffer. Peptide 1-50, which contains a biotin tag, was diluted to 10 μg/ml in wash buffer and 100 μl of the solution was placed into each well being used. The plate was incubated at room temperature for 2 h, and the wells washed thrice with 200 μl of wash buffer. Truncated fluorescent variants of peptide 1-50 at 40 μg/ml, 20 μg/ml, and 10 μg/ml were added to the wells in triplicate, and the plates incubated at room temperature for 30 min. The wells were then washed thrice with 200 μl of wash buffer under low light conditions, and the plate read on a Biotek fluorescent plate reader at an excitation wavelength of 490 nm and an emission wavelength of 520 nm.
A ligand-binding assay was performed using streptavidin-coated plates in order to define the minimum peptide motif needed for dimerization of the X-protein. In this scenario the X-protein monomer serves as its own ligand. […] A series of short peptides from the region encoding aa 1-50 were synthesized. The parent peptide containing aa 1-50 conjugated N-terminally to a biotin tag was added to the streptavidin coated plates. […] Non-biotinylated peptides encoding aa 1-20, 16-35, 21-40 and 34-53 were added at 10, 20, and 40 μg/ml to the wells coated with peptide aa 1-50. The smaller peptides were each conjugated to a FITC tag for detection using a fluorescent plate reader. […] Binding performed with lesser concentrations of the peptides was not significant. Even smaller peptides encompassing that region 16-35 were made to determine whether the aa 16-35 was the minimum peptide motif needed for X-protein dimerization. These peptides synthesized, namely aa 16-26, 16-24, and 16-22 were analyzed using the same peptide binding assay. […] Thus of the peptides examined, the minimal peptide motif needed for dimerization of the X-protein is the […] peptide 16-35.

[8] = tested on: TK-1 T cells adherent to MAdCAM-1; assay: Carriage of a foreign peptide into TK-1 cells; type: cell-based; settings: 50 μM, 30 min, streptavidin-FITC detection
Experimental: Eight-well glass chamber slides were coated overnight at 4° C. with MAdCAM-1-Fc. They were blocked with FCS at RT for 2 h. TK-1 T cells were activated with 2 mM Mn2+/Ca2+ in HBSS buffer and added to MAdCAM-1 coated glass slides, followed by incubation for 15 min. Peptides […] (SEQ ID NO 15) and R9YDRREY (SEQ ID NO 14) were added at 50 μM followed by incubation for 30 min. The cells were fixed overnight in 4% PFA, permeabilised with PBS+0.1% Tween 20 for 15 min, blocked with 3% BSA in PBS for 1 h, and the presence of the peptides detected with FITC-Streptavidin (1:200 dilution in 3% BSA in PBS 1 h). Slides were mounted with Prolong gold with DAPI.
The X-protein cell-permeable peptide LCLRPVG (SEQ ID NO: 2) was fused to the hexapeptide YDRREY (SEQ ID NO 16) taken from the cytoplasmic domain of the human integrin β7 subunit. The peptides were separated by a glycine linker, and a biotin tag was added N-terminally. The fusion peptide was compared with the YDRREY (SEQ ID NO 16) peptide fused to an R9 (SEQ ID NO: 145) carrier peptide for its ability to enter TK-1 T cells adherent to MAdCAM-1.

[9] = listed as biotin-RRRRRRRRHKLVRSPAPCKFFTSAGGLNVTAPTPQQLQAFKNEVGVLRK

CCCS(=O)(=O)Nc1ccc(F)c(C(=O)c2c[nH]c3ncc(-c4ccc(Cl)cc4)cc23)c1F [PLX4032]
patients with regression of melanomas [1]: 80 % of patients

Biotin-LCLRPVGGGRRRQQQQQQRRR
cell apoptosis [2]: no detectable effect

Biotin-RRRRRRRRHKLVRSPAPCKFFTSAGGLCLRPVGAESRGRPVSGPFG (cysteine pairing not given here)
degradation of the X-protein (Western blot, nuclear fraction) [3]: complete degradation of the X-protein

Biotin-RRRRRRRRHKLVRSPAPCKFFTSAGGLNVTAPTPQQLQAFKNEVGVLRK [B-Raf targeting peptide]
tumour cell death / apoptosis [4]: killed the melanoma cells
tumour cell death / apoptosis [4, 9]: led to tumour cell death
tumour cell death / apoptosis [5]: killed the melanoma cells
tumour cell death / apoptosis [5, 9]: led to tumour cell death

Biotin-RRRRRRRRLCLRPVGAESRGRPVSGPFGGCRHKLVRSPAPCKFFTSA (cysteine pairing not given here)
degradation of the X-protein (Western blot, nuclear fraction) [3]: near complete degradation of the X-protein, with slight preference for the full length protein

FITC-Acp-FGPLSSPAFSVPADHGAHLS ({FITC-Acp}-FGPLSSPAFSVPADHGAHLS; reading uncertain; also: printed as FITC-Acp-FGPLSSPAFSVPADHGAHLS) [Peptide 34-53]
uptake by HepG2 cells (cell permeability) [6]: not cell-permeable

FITC-Acp-MAARLCCQLDPARDVLCLRP [Peptide 1-20]
uptake by HepG2 cells (cell permeability) ([6]; listed as aa 1-20): cell-permeable; also recorded: readily taken up by the cells
intracellular distribution (confocal slicing) [6]: taken up into the cell cytoplasm, as well as into the nucleus

FITC-Acp-RRRRRRRRLCLRPVGAESRGRPVSGPFGGMLAPYIPM
degradation of the X-protein (Western blot, nuclear fraction) [3]: near complete degradation of the X-protein

FITC-Acp-RRRRRRRRMLAPYIPMGGLCLRPVGAESRGRPVSGPFG
degradation of the X-protein (Western blot, nuclear fraction) [3]: complete degradation of the X-protein

FITC-Acp-VGAESRGRPVSGPFGPLSSP ({FITC-Acp}-VGAESRGRPVSGPFGPLSSP; reading uncertain; also: printed as FITC-Acp-VGAESRGRPVSGPFGPLSSP) [Peptide 21-40]
binding to peptide 1-50 (fluorescence) [7]: failed to appreciably bind peptide 1-50
uptake by HepG2 cells (cell permeability) [6]: not cell-permeable

FITC-LCLRP ({FITC}-LCLRP) [Peptide 16-20]
uptake by HepG2 cells (cell permeability) ([6]; listed as aa 16-20): cell-permeable; also recorded: taken up into the cells

FITC-LCLRPVGAE ({FITC}-LCLRPVGAE) [Peptide 16-24]
binding to peptide 1-50 (fluorescence) [7]: could not match the strong binding shown by the parental peptide 16-35
uptake by HepG2 cells (cell permeability) ([6]; listed as aa 16-24): cell-permeable, being taken up by cells at a level equivalent to that of the parental peptide aa 16-35

FITC-LCLRPVGAESR ({FITC}-LCLRPVGAESR) [Peptide 16-26]
binding to peptide 1-50 (fluorescence) [7]: could not match the strong binding shown by the parental peptide 16-35
uptake by HepG2 cells (cell permeability) ([6]; listed as aa 16-26): cell-permeable, being taken up by cells at a level equivalent to that of the parental peptide aa 16-35

LCLRPVGAESRGRPV [Peptide 16-30]
binding to peptide 1-50 (fluorescence) [7]: binds to the X-protein N-terminal peptide 1-50; also recorded: bound peptide 1-50 even more strongly than peptide 16-35

LCLRPVGGYDRREY (Biotin-LCLRPVGGYDRREY) [biotinylated LCLRPVG fused via glycine linker to β7 integrin hexapeptide YDRREY]
uptake of biotinylated fusion peptide into TK-1 cells [8]: uniformly taken up in similar amounts by all cells

MAARLCCQ (cysteine pairing not given here; also: fluorescein label, position not given here) [Peptide 1-8]
uptake by HepG2 cells (cell permeability) [6]: cell-permeable

MAARLCCQLDPARDV [Peptide 1-15]
uptake by HepG2 cells (cell permeability) ([6]; listed as aa 1-15): cell-permeable; also recorded: taken up into the cells
intracellular distribution (confocal slicing) [6]: taken up into the cytoplasm and nucleus

R9YDRREY (RRRRRRRRRYDRREY; not fully specified (N-terminus); also: biotin, position not given here) [Peptide R9YDRREY, biotinylated YDRREY peptide fused to an R9 carrier peptide, reference compound]
uptake of biotinylated fusion peptide into TK-1 cells [8]: entered all the cells
